{"source": "paper PMC9361468", "about": "(RSC Advances, 2022)", "key": {"[1]": {"details": "Experimental pKa, common substituted piperazines, mean ± SD of 3 experiments"}, "[2]": {"details": "Experimental pKa, PROTAC precursors, mean ± SD of 3 experiments"}}, "note": "Like-named read-outs stand apart in the source and are kept apart here."}
{"smiles": "Cc1sc2c(c1C)C(c1ccc(Cl)cc1)=N[C@@H](CC(=O)N1CCN(C)CC1)c1nnc(C)n1-2", "note": "[Compound 2]", "values": [{"measurement": "pKa", "setting": "physchem", "result": "7.14 ± 0.02"}, {"measurement": "% protonation state at pH = 7.5, NI: not-ionized state", "setting": "PROTAC precursors", "result": "NI: 69.61%"}, {"measurement": "% protonation state at pH = 7.5, P: single protonation state", "setting": "PROTAC precursors", "result": "P: 30.39%"}]}
{"smiles": "COc1ccc2c(c1)c(CC(=O)N1CCN(CCOCCOCC(=O)N[C@H](C(=O)N3C[C@H](O)C[C@H]3C(=O)N[C@@H](C)c3ccc(-c4scnc4C)cc3)C(C)(C)C)CC1)c(C)n2C(=O)c1ccc(Cl)cc1", "note": "[PROTAC-10]", "values": [{"measurement": "% protonation state at pH = 7.5, NI: not-ionized state", "setting": "PROTACs", "result": "NI: 94.44%"}]}
{"smiles": "COc1ccc2c(c1)c(CC(=O)N1CCN(CCCC(C)=O)CC1)c(C)n2C(=O)c1ccc(Cl)cc1", "note": "[Compound 13]", "values": [{"measurement": "pKa", "setting": "physchem", "result": "6.75 ± 0.03"}, {"measurement": "% protonation state at pH = 7.5, NI: not-ionized state", "setting": "PROTAC precursors", "result": "NI: 84.90%"}, {"measurement": "% protonation state at pH = 7.5, P: single protonation state", "setting": "PROTAC precursors", "result": "P: 15.09%"}]}
{"smiles": "CC(=O)N1CCN(C)CC1", "note": "[1-Acetyl-4-methylpiperazine, reference compound]", "values": [{"measurement": "pKa", "setting": "physchem; [1]", "result": 7.06}, {"measurement": "% protonation state at pH = 7.5, NI: not-ionized state", "setting": "substituted piperazines", "result": "NI: 73.36%"}, {"measurement": "% protonation state at pH = 7.5, P: single protonation state", "setting": "substituted piperazines", "result": "P: 26.64%"}, {"measurement": "% protonation state at pH = 7.5, NI: not-ionized state", "setting": "substituted piperazines, listed as 1-acetyl-4-methylpiperazine", "result": 73.4, "unit": "%"}]}
{"smiles": "COc1ccc2c(c1)c(CC(=O)N1CCN(CCC(C)=O)CC1)c(C)n2C(=O)c1ccc(Cl)cc1", "note": "[Compound 12]", "values": [{"measurement": "pKa", "setting": "physchem", "result": "5.98 ± 0.05"}, {"measurement": "% protonation state at pH = 7.5, NI: not-ionized state", "setting": "PROTAC precursors", "result": "NI: 97.07%"}, {"measurement": "% protonation state at pH = 7.5, P: single protonation state", "setting": "PROTAC precursors", "result": "P: 2.93%"}]}
{"smiles": "CC(=O)N1CCNCC1", "note": "[1-Acetyl-piperazine, reference compound]", "values": [{"measurement": "pKa", "setting": "physchem; [1]", "result": "8.05 ± 0.02"}, {"measurement": "% protonation state at pH = 7.5, NI: not-ionized state", "setting": "substituted piperazines", "result": "NI: 21.99%"}, {"measurement": "% protonation state at pH = 7.5, P: single protonation state", "setting": "substituted piperazines", "result": "P: 78.01%"}]}
{"smiles": "COC(=O)CCCCCCN1CCN(C(=O)Cc2c(C)n(C(=O)c3ccc(Cl)cc3)c3ccc(OC)cc23)CC1", "note": "[Compound 15]", "values": [{"measurement": "pKa", "setting": "physchem", "result": "7.41 ± 0.08"}, {"measurement": "% protonation state at pH = 7.5, NI: not-ionized state", "setting": "PROTAC precursors", "result": "NI: 55.16%"}]}
{"smiles": "COc1ccc2c(c1)c(CC(=O)N1CCN(C)CC1)c(C)n2C(=O)c1ccc(Cl)cc1", "note": "[Compound 4]", "values": [{"measurement": "pKa", "setting": "physchem", "result": "6.93 ± 0.03"}, {"measurement": "% protonation state at pH = 7.5, NI: not-ionized state", "setting": "PROTAC precursors", "result": "NI: 78.79%"}, {"measurement": "% protonation state at pH = 7.5, P: single protonation state", "setting": "PROTAC precursors", "result": "P: 21.20%"}]}
{"smiles": "COC(=O)CCCCN1CCN(C(=O)Cc2c(C)n(C(=O)c3ccc(Cl)cc3)c3ccc(OC)cc23)CC1", "note": "[Compound 14]", "values": [{"measurement": "pKa", "setting": "physchem", "result": "7.07 ± 0.05"}, {"measurement": "% protonation state at pH = 7.5, NI: not-ionized state", "setting": "PROTAC precursors", "result": "NI: 72.91%"}]}
{"smiles": "COc1ccc2c(c1)c(CC(=O)N1CCN(CC(C)=O)CC1)c(C)n2C(=O)c1ccc(Cl)cc1", "note": "[Compound 9]", "values": [{"measurement": "pKa", "setting": "physchem", "result": "5.35 ± 0.04"}, {"measurement": "% protonation state at pH = 7.5, P: single protonation state", "setting": "PROTAC precursors", "result": "P: 3.83%"}]}
{"smiles": "C1CNCCN1", "note": "[Piperazine, reference compound]", "values": [{"measurement": "% protonation state at pH = 7.5, DP: double protonation state", "result": "DP: 0.86%"}, {"measurement": "% protonation state at pH = 7.5, NI: not-ionized state", "result": "NI: 0.67%"}, {"measurement": "% protonation state at pH = 7.5, P: single protonation state", "result": "P: 98.48%"}]}
{"smiles": "COc1ccc2c(c1)c(CC(=O)N1CCN(CCC(=O)N[C@H](C(=O)N3C[C@H](O)C[C@H]3C(=O)N[C@@H](C)c3ccc(-c4scnc4C)cc3)C(C)(C)C)CC1)c(C)n2C(=O)c1ccc(Cl)cc1", "note": "[PROTAC-6]", "values": [{"measurement": "% protonation state at pH = 7.5, NI: not-ionized state", "setting": "PROTACs", "result": "NI: 98.33%"}]}
{"smiles": "CN1CCN(C)CC1", "note": "[1,4-Dimethylpiperazine, reference compound]", "values": [{"measurement": "pKa", "setting": "physchem; [1]", "result": "~8"}, {"measurement": "% protonation state at pH = 7.5, DP: double protonation state", "setting": "substituted piperazines", "result": "DP: 0.02%"}, {"measurement": "% protonation state at pH = 7.5, NI: not-ionized state", "setting": "substituted piperazines", "result": "NI: 21.59%"}, {"measurement": "% protonation state at pH = 7.5, P: single protonation state", "setting": "substituted piperazines", "result": "P: 78.38%"}]}
{"smiles": "CCN1CCNCC1", "note": "[1-Ethylpiperazine, reference compound]", "values": [{"measurement": "pKa", "setting": "physchem; [1]", "result": "5.04 ± 0.03"}, {"measurement": "% protonation state at pH = 7.5, DP: double protonation state", "setting": "substituted piperazines", "result": "DP: 2.18%"}, {"measurement": "% protonation state at pH = 7.5, NI: not-ionized state", "setting": "substituted piperazines", "result": "NI: 0.34%"}, {"measurement": "% protonation state at pH = 7.5, P: single protonation state", "setting": "substituted piperazines", "result": "P: 97.48%"}]}
{"smiles": "O=C(c1cc(Cc2n[nH]c(=O)c3ccccc23)ccc1F)N1CCN(Cc2ccccc2)CC1", "note": "[Compound 7]", "values": [{"measurement": "pKa", "setting": "physchem; [2]", "result": "5.98 ± 0.01"}, {"measurement": "% protonation state at pH = 7.5, NI: not-ionized state", "setting": "PROTAC precursors", "result": "NI: 97.07%"}, {"measurement": "% protonation state at pH = 7.5, P: single protonation state", "setting": "PROTAC precursors", "result": "P: 2.93%"}]}
{"smiles": "COC(=O)CCC(=O)N1CCN(CCNC(=O)Cc2c(C)n(C(=O)c3ccc(Cl)cc3)c3ccc(OC)cc23)CC1", "note": "[Compound 16]", "values": [{"measurement": "pKa", "setting": "physchem; [2]", "result": 5.61}, {"measurement": "% protonation state at pH = 7.5, NI: not-ionized state", "setting": "PROTAC precursors", "result": "NI: 98.73%"}, {"measurement": "% protonation state at pH = 7.5, P: single protonation state", "setting": "PROTAC precursors", "result": "P: 1.27%"}]}
{"smiles": "C#CCN1CCN(C(=O)C[C@@H]2N=C(c3ccc(Cl)cc3)c3c(sc(C)c3C)-n3c(C)nnc32)CC1", "note": "[Compound 5]", "values": [{"measurement": "pKa", "setting": "physchem", "result": "4.91 ± 0.14"}, {"measurement": "% protonation state at pH = 7.5, NI: not-ionized state", "setting": "PROTAC precursors", "result": "NI: 99.74%"}, {"measurement": "% protonation state at pH = 7.5, P: single protonation state", "setting": "PROTAC precursors", "result": "P: 0.26%"}]}
{"smiles": "COc1ccc2c(c1)c(CC(=O)N1CCN(CCOCCO)CC1)c(C)n2C(=O)c1ccc(Cl)cc1", "note": "[Compound 17]", "values": [{"measurement": "pKa", "setting": "physchem", "result": "6.75 ± 0.14"}, {"measurement": "% protonation state at pH = 7.5, NI: not-ionized state", "setting": "PROTAC precursors", "result": "NI: 84.90%"}, {"measurement": "% protonation state at pH = 7.5, P: single protonation state", "setting": "PROTAC precursors", "result": "P: 15.10%"}]}
{"smiles": "CCOC(=O)CN1CCN(C(=O)Cc2c(C)n(C(=O)c3ccc(Cl)cc3)c3ccc(OC)cc23)CC1", "note": "[Compound 10]", "values": [{"measurement": "pKa", "setting": "physchem", "result": "4.5 ± 0.06"}, {"measurement": "% protonation state at pH = 7.5, NI: not-ionized state", "setting": "PROTAC precursors", "result": "NI: 99.9%"}]}
{"smiles": "COc1ccc2c(c1)c(CC(=O)NCCCN1CCN(CCCNC(=O)CCC(=O)N[C@H](C(=O)N3C[C@H](O)C[C@H]3C(=O)N[C@@H](C)c3ccc(-c4scnc4C)cc3)C(C)(C)C)CC1)c(C)n2C(=O)c1ccc(Cl)cc1", "note": "[PROTAC-8]", "values": [{"measurement": "pKa", "setting": "physchem; Experimental pKa, PROTACs, mean ± SD of 3 experiments", "result": 3.94}, {"measurement": "% protonation state at pH = 7.5, DP: double protonation state", "setting": "PROTACs", "result": "DP: 0.02%"}, {"measurement": "% protonation state at pH = 7.5, NI: not-ionized state", "setting": "PROTACs", "result": "NI: 32.86%"}]}
{"smiles": "CN1CCNCC1", "note": "[1-Methylpiperazine, reference compound]", "values": [{"measurement": "pKa", "setting": "physchem; [1]", "result": 9.16}, {"measurement": "% protonation state at pH = 7.5, DP: double protonation state", "setting": "substituted piperazines", "result": "DP: 2.13%"}, {"measurement": "% protonation state at pH = 7.5, NI: not-ionized state", "setting": "substituted piperazines", "result": "NI: 0.32%"}, {"measurement": "% protonation state at pH = 7.5, P: single protonation state", "setting": "substituted piperazines", "result": "P: 97.55%"}]}
{"smiles": "CC(=O)CN1CCN(C(=O)c2ccc3c(c2)nc(Nc2cccc(Cl)c2)c2ccncc23)CC1", "note": "[Compound 8]", "values": [{"measurement": "% protonation state at pH = 7.5, NI: not-ionized state", "setting": "PROTAC precursors", "result": "NI: 99.71%"}, {"measurement": "% protonation state at pH = 7.5, P: single protonation state", "setting": "PROTAC precursors", "result": "P: 0.29%"}]}
